Columns and labels:
RKO = test: Antiproliferative activity against human RKO cells assessed as reduction in cell growth
SW480 = test: Antiproliferative activity against human SW480 cells assessed as reduction in cell growth
PC-3 [1] = test: Antiproliferative activity against human PC-3 cells assessed as reduction in cell growth
LAPC4 = test: Antiproliferative activity against human LAPC4 cells assessed as reduction in cell growth
LNCaP C4-2 = test: Antiproliferative activity against human C4-2 cells assessed as reduction in cell growth
HCT-116 [2] = test: Antiproliferative activity against human HCT-116 cells assessed as reduction in cell growth by MTT assay
MDA-MB-435 = test: Antiproliferative activity against human MDA-MB-435 cells assessed as reduction in cell growth
MCF7 [3] = test: Antiproliferative activity against human MCF7 cells assessed as reduction in cell growth
DU-145 [4] = test: Antiproliferative activity against human DU-145 cells assessed as reduction in cell growth
LNCaP [5] = test: Antiproliferative activity against human LNCaP cells assessed as reduction in cell growth
HCT-116 [6] = test: Antiproliferative activity against human HCT-116 cells assessed as reduction in cell viability incubated for 24 hrs by Celltiter-Glo assay; settings: HCT-116, 24 h
[7] = molecular target: T1, E3 ubiquitin-protein ligase Mdm2 (Homo sapiens, UniProt Q00987); test: Binding affinity to MDM2 (unknown origin) assessed as inhibition constant
HL-60 = test: Antiproliferative activity against human HL-60 cells assessed as reduction in cell viability incubated for 24 hrs by Celltiter-Glo assay; settings: HL-60, 24 h
MCF7 [8] = test: Antiproliferative activity against human MCF7 cells assessed as reduction in cell viability incubated for 24 hrs by Celltiter-Glo assay; settings: MCF7, 24 h
Protein Mdm4 [9] = molecular target: T2, Protein Mdm4 (Homo sapiens, UniProt O15151); test: Binding affinity to MDMX (unknown origin) assessed as inhibition constant
T2 sequence (O15151 whole entry): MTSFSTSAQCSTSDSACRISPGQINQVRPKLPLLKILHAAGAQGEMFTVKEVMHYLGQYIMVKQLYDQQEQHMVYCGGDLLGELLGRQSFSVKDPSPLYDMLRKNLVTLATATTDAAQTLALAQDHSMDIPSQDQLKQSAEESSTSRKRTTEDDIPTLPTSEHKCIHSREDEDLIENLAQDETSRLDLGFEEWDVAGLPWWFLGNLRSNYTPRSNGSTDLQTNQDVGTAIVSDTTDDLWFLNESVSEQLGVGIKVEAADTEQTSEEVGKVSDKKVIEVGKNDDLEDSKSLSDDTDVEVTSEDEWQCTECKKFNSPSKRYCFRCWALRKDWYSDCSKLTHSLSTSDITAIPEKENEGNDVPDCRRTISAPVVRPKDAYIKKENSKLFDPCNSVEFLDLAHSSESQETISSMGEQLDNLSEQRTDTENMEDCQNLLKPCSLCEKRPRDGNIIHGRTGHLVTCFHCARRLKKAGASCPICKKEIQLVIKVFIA

OCI-AML2 = test: Antiproliferative activity against human OCI-AML2 cells assessed as reduction in cell viability incubated for 24 hrs by Celltiter-Glo assay; settings: OCI-AML2, 24 h
PC-3 [10] = test: Antiproliferative activity against human PC-3 cells assessed as reduction in cell viability incubated for 24 hrs by Celltiter-Glo assay; settings: PC-3, 24 h
[11] = Antiproliferative activity against human RWPE-1 cells assessed as reduction in cell viability incubated for 24 hrs by Celltiter-Glo assay
DU-145 [12] = test: Antiproliferative activity against human DU-145 cells assessed as reduction in cell viability incubated for 24 hrs by Celltiter-Glo assay; settings: DU-145, 24 h
LNCaP [13] = test: Antiproliferative activity against human LNCaP cells assessed as reduction in cell viability incubated for 24 hrs by Celltiter-Glo assay
[14] = molecular target: T1, E3 ubiquitin-protein ligase Mdm2; test: Binding affinity to MDM2 (unknown origin) assessed as dissociation constant
MCF7 [15] = test: Antiproliferative activity against human MCF7 cells assessed as reduction in cell viability measured for 48 hrs by MTT assay; settings: MCF7, 48 h
A549 = test: Antiproliferative activity against human A549 cells assessed as reduction in cell viability measured for 48 hrs by MTT assay; settings: A549, 48 h
OCI-AML-3 = test: Antiproliferative activity against human OCI-AML-3 cells assessed as reduction in cell viability measured for 48 hrs by MTT assay; settings: OCI-AML-3, 48 h
[16] = molecular target: T1, E3 ubiquitin-protein ligase Mdm2; test: Inhibition of MDM2 (unknown origin)
HCT-116 [17] = test: Antiproliferative activity against human HCT-116 cells assessed as reduction in cell viability measured for 48 hrs by MTT assay; settings: HCT-116, 48 h
Protein Mdm4 [18] = molecular target: T2, Protein Mdm4; test: Inhibition of MDMX (unknown origin)
SGC-7901 = test: Cytotoxicity against human SGC-7901 cells assessed as reduction in cell growth incubated for 48 hrs by MTT assay; settings: SGC-7901, 48 h
Prostatic carcinoma cell = test: Cytotoxicity against human Prostatic carcinoma cell
BT-474 = test: Cytotoxicity against human BT-474 cells assessed as cell growth inhibition
MDA-MB-175-VII = test: cells; settings: Homo sapiens
Description: Cytotoxicity against human MDA-MB-175-VII cells assessed as reduction in cell growth

MKN-45 = test: Cytotoxicity against human MKN-45 cells assessed as reduction in cell growth incubated for 48 hrs by MTT assay; settings: MKN-45, 48 h
ZR-75-30 = test: Cytotoxicity against human ZR-75-30 cells assessed as reduction in cell growth
ZR-75-1 = test: Cytotoxicity against human ZR-75-1 cells assessed as reduction in cell growth
BT-549 = test: Cytotoxicity against human BT-549 cells assessed as cell growth inhibition
MCF7 [19] = test: Cytotoxicity against human MCF7 cells assessed as reduction in cell growth
Hs-578T = test: cells; settings: Homo sapiens
Description: Cytotoxicity against human Hs-578T cells assessed as cell growth inhibition

BGC-823 = test: Cytotoxicity against human BGC-823 cells assessed as reduction in cell growth incubated for 48 hrs by MTT assay; settings: BGC-823, 48 h
NCI-N87 = test: Cytotoxicity against human NCI-N87 cells assessed as reduction in cell growth incubated for 48 hrs by MTT assay; settings: NCI-N87, 48 h
HGC-27 = test: Cytotoxicity against human HGC-27 cells assessed as reduction in cell growth incubated for 48 hrs by MTT assay; settings: HGC-27, 48 h
[20] = tested on: KATO III stomach cancer cell line; test: Cytotoxicity against human KATO III stomach cancer cell line assessed as reduction in cell growth incubated for 48 hrs by MTT assay
[21] = Cytotoxicity against human Triple-negative breast cancer cell; settings: Breast carcinoma cell
Breast cancer cell line = test: Cytotoxicity against human Breast cancer cell line
Protein Mdm4 [22] = molecular target: T2, Protein Mdm4
MCF7 [23] = test: Antiproliferative activity against human MCF7 cells assessed as reduction in cell growth incubated for 72 hrs by MTS assay; settings: MCF7, 72 h
T98G = test: Antiproliferative activity against human T98G cells assessed as reduction in cell growth incubated for 72 hrs by MTS assay
U-87 MG = test: Antiproliferative activity against human U-87 MG cells assessed as reduction in cell growth incubated for 72 hrs by MTS assay
[24] = Antiproliferative activity against human C20/A4 cells assessed as reduction in cell growth incubated for 72 hrs by MTS assay
[25] = Antiproliferative activity against human U373 MG cells assessed as reduction in cell growth incubated for 72 hrs by MTS assay
L02 = test: Antiproliferative activity against human L02 cells assessed as reduction in cell growth
SH-SY5Y = test: Antiproliferative activity against human SH-SY5Y cells assessed as reduction in cell growth
SJSA-1 = test: Antiproliferative activity against human SJSA-1 cells assessed as reduction in cell growth
HCT-116 [26] = test: Antiproliferative activity against human HCT-116 cells assessed as reduction in cell growth
[27] = Antiproliferative activity against human BEAS-2B cells assessed as reduction in cell growth
[28] = molecular target: T1, E3 ubiquitin-protein ligase Mdm2
[29] = Antiproliferative activity against human IMR-90 cells assessed as reduction in cell viability incubated for 24 hrs by Celltiter-Glo assay

T1 sequence (Q00987 whole entry): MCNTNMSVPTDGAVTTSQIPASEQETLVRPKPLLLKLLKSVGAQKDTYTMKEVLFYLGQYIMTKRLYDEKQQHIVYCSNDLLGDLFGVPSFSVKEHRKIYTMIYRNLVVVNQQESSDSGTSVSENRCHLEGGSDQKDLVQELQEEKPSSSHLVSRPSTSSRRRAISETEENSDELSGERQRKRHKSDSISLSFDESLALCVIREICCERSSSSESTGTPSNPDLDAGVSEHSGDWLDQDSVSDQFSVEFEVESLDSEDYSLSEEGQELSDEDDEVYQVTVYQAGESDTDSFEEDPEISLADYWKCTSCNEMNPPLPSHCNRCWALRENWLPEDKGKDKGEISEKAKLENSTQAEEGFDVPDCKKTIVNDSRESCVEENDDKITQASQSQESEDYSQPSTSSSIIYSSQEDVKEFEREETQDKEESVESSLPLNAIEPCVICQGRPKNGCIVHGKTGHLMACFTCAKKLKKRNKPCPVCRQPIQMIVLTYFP

Cc1c(Cl)ccc2c(/C=C3\NC(=O)N(C(C(=O)NC(CO)CO)c4ccc(F)c(F)c4)C3=O)c[nH]c12 (stereo not given)
IC50 (RKO): 3200 nM
IC50 (SW480): > 50000 nM
IC50 (PC-3 [1]): 45300 nM
IC50 (LAPC4): 1200 nM
IC50 (LNCaP C4-2): 1700 nM
IC50 (HCT-116 [2]): 3000 nM
IC50 (MDA-MB-435): 25300 nM
IC50 (MCF7 [3]): 3500 nM
IC50 (DU-145 [4]): 45500 nM
IC50 (LNCaP [5]): 1100 nM

O=c1cc(-c2ccc(Oc3c(O)cc4oc(-c5ccc(O)cc5)cc(=O)c4c3O)cc2)oc2cc(O)cc(O)c12 [HINOKIFLAVONE]
IC50 (HCT-116 [6]): 14200 nM
Ki [7]: 13000 nM
IC50 (HL-60): 11000 nM
IC50 (MCF7 [8]): 16300 nM
Ki (Protein Mdm4 [9]): 12000 nM
IC50 (OCI-AML2): 4900 nM

COC(C)(C)CCC[C@](C)(O)[C@H]1CC[C@]2(C)[C@@H]1[C@H](O)C[C@@H]1[C@@]3(C)CC[C@H](O)C(C)(C)[C@@H]3CC[C@]12C
IC50 (PC-3 [10]): 4400 nM
IC50 at 24 h [11]: > 50000 nM
IC50 (DU-145 [12]): 7600 nM
IC50 (LNCaP [13]): 9600 nM

C[C@@H](c1ccc(Cl)cc1Cl)n1cnc(-c2ccccc2)c1-c1c(C(=O)Nc2cc(C(=O)O)ccc2N2CCC(N3CCCOC3=O)CC2)[nH]c2cc(Cl)ccc12
Kd [14]: < 0.1 nM

Cc1ccnc(NC(c2cccc(Cl)c2Cl)c2ccc3cccnc3c2O)c1 (stereo not given)
IC50 (HCT-116 [6]): 600 nM

CC(C)C(=O)Nc1ccccc1SC(=O)C(C)C
IC50 (MCF7 [15]): 18000 nM
IC50 (A549): > 30000 nM
IC50 (OCI-AML-3): 18000 nM
IC50 [16]: 13100 nM
IC50 (HCT-116 [17]): 16000 nM
IC50 (Protein Mdm4 [18]): 1500 nM

Cc1c2ccccc2c(CSC(=N)N)c2ccccc12
IC50 (SGC-7901): 1200 nM
IC50 (Prostatic carcinoma cell): 1500 nM
IC50 (BT-474): 1500 nM
IC50 (MDA-MB-175-VII): 1500 nM
IC50 (MKN-45): 1200 nM
IC50 (ZR-75-30): 1500 nM
IC50 (ZR-75-1): 1500 nM
IC50 (BT-549): 1500 nM
IC50 (MCF7 [19]): 1500 nM
IC50 (Hs-578T): 1500 nM
IC50 (BGC-823): 1200 nM
IC50 (NCI-N87): 1200 nM
IC50 (HGC-27): 1200 nM
IC50 [20]: 1200 nM

Brc1c2ccccc2c(C[P+](c2ccccc2)(c2ccccc2)c2ccccc2)c2ccccc12
IC50 [21]: 3700 nM
IC50 (Breast cancer cell line): 3700 nM

Ac-ETFLDLWRLLLQN-NH2
Kd (Protein Mdm4 [22]): 109000 nM

Cc1c(Cl)ccc2c(/C=C3\NC(=O)N(Cc4ccc(F)c(F)c4)C3=O)c[nH]c12
IC50 (MCF7 [23]): 1900 nM
IC50 (T98G): > 10000 nM
IC50 (U-87 MG): 1400 nM
IC50 at 72 h [24]: 4500 nM
IC50 [25]: 1000 nM

CN(C)C1CCN(C(=O)CCC(=O)C(c2ccc(Cl)cc2)C(C(=O)c2ccc(Cl)cc2)c2ccc(F)cc2Cl)CC1 (stereo not given)
IC50 (L02): 15900 nM
IC50 (SH-SY5Y): 500 nM
IC50 (SJSA-1): 600 nM
IC50 (HCT-116 [26]): 700 nM
IC50 [27]: 18000 nM

COc1cccc2c1NCC2C(=O)N[C@H]1CCN(c2ccc(C)cc2)C1 (stereo not given in full)
IC50 [16]: > 50000 nM

N#Cc1c2ccc(N)cc2nc2cc(N)ccc12
IC50 (MCF7 [15]): 4300 nM
IC50 (A549): 5300 nM
IC50 (OCI-AML-3): 1300 nM
IC50 (HCT-116 [17]): 2800 nM

Ac-ETFLDLWKLELEN-NH2
Kd [28]: 149000 nM

O=C(CCC(=O)N1CCNCC1)C(c1ccc(Cl)cc1)C(C(=O)c1ccc(Cl)cc1)c1ccc(F)cc1Cl (stereo not given)
IC50 (L02): 12600 nM
IC50 (SH-SY5Y): 700 nM
IC50 (SJSA-1): 600 nM
IC50 (HCT-116 [26]): 700 nM
IC50 [27]: 16300 nM

C=C1C(=O)O[C@H]2C[C@H](C)[C@@]34C[C@]5(C(=O)OC6CC(C)=C([C@H](C)CCCOC(C)=O)[C@@H](O)C65)[C@@H](C(C)=C3C[C@H]12)C4OC(C)=O (stereo not given in full)
IC50 at 24 h [29]: > 50000 nM
IC50 (PC-3 [10]): 1300 nM
IC50 (DU-145 [12]): 4000 nM
IC50 (LNCaP [13]): 1700 nM
